# Active and inactive are the calls of the source. No cut-off for these calls is given here.
# Key:
# Mus musculus [1] = experiment: Hypoglycemic activity in ICR mouse assessed as plasma glucose level at 1 umol/kg, ip pretreated 30 mins prior to glucose challenge and measured at 15 mins post challenge by intraperitoneal glucose tolerance test (reference value: 15.3 +/- 1.2 mmol/L); format: functional
# Mus musculus [2] = experiment: Hypoglycemic activity in ICR mouse assessed as reduction in plasma glucose AUC (0 to 120 mins) at 1 umol/kg, ip pretreated 30 mins prior to glucose challenge […] by intraperitoneal glucose tolerance test; format: functional, organism-based
# INS1 [3] = experiment: Cytoprotective activity against H2O2-induced oxidative stress-mediated cell death in rat INS-1 cells assessed as reduction in cell viability at 10 uM after 24 hrs by MTT assay (reference value: 37%); format: functional
# INS1 [4] = experiment: Cytoprotective activity against STZ-mediated cell death in rat INS-1 cells assessed as reduction in cell viability at 1 uM after 24 hrs by MTT assay (reference value: 50%); format: functional
# INS1 [5] = experiment: Cytoprotective activity against STZ-mediated cell death in rat INS-1 cells assessed as reduction in cell viability at 10 uM after 24 hrs by MTT assay (reference value: 50%); format: functional
# INS1 [6] = experiment: Cytoprotective activity against glucolipotoxicity-mediated cell death in rat INS-1 cells assessed as reduction in cell viability at 10 uM after 24 hrs by MTT assay (reference value: 31%); format: functional
# INS1 [7] = experiment: Cytoprotective activity against H2O2-induced oxidative stress-mediated cell death in rat INS-1 cells assessed as reduction in apoptotic cells at 0.1 to 10 uM after 24 hrs by Annexin V/propidium iodide staining-based flow cytometric analysis; format: functional
# INS1 [8] = experiment: Cytoprotective activity against STZ-mediated cell death in rat INS-1 cells assessed as reduction in apoptotic cells at 0.1 to 10 uM after 24 hrs by Annexin V/propidium iodide staining-based flow cytometric analysis; format: functional
# INS1 [9] = experiment: Cytoprotective activity against glucolipotoxicity-mediated cell death in rat INS-1 cells assessed as reduction in apoptotic cells at 0.1 to 10 uM after 24 hrs by Annexin V/propidium iodide staining-based flow cytometric analysis; format: functional
# Mus musculus [10] = experiment: Antidiabetic activity in STZ-induced diabetic ICR mouse model assessed as fasting blood glucose level at 0.1 umol/kg, ip for 5 consecutive days by glucometery (reference value: 17.7 +/- 1.1 mM); format: functional
# Mus musculus [11] = experiment: Antidiabetic activity in STZ-induced diabetic ICR mouse model assessed as fasting blood glucose level at 1 umol/kg, ip for 5 consecutive days by glucometery (reference value: 17.7 +/- 1.1 mM); format: functional
# Mus musculus [12] = experiment: Antidiabetic activity in STZ-induced diabetic ICR mouse model assessed as fasting blood glucose level at 10 umol/kg, ip for 5 consecutive days by glucometery (reference value: 17.7 +/- 1.1 mM); format: functional
# Mus musculus [13] = experiment: Antiobesity activity in C57BL/6J mouse model of diet-induced obesity assessed as reduction in cumulative food intake at 1 umol/kg, ip qd for 4 weeks relative to control; format: functional; set-up: scale not given: the % may be the effect or the level left
# Mus musculus [14] = experiment: Antiobesity activity in C57BL/6J mouse model of diet-induced obesity assessed as reduction in body weight at 1 umol/kg, ip qd for 4 weeks; format: functional, organism-based
# Mus musculus [15] = experiment: Antiobesity activity in C57BL/6J mouse model of diet-induced obesity assessed as increase in small brown adipocytes at 1 umol/kg, ip qd for 4 weeks by haematoxylin and eosin staining-based assay; format: functional, organism-based
# Mus musculus [16] = experiment: Antiobesity activity in C57BL/6J mouse model of diet-induced obesity assessed as reduction in circulating leptin level at 1 umol/kg, ip qd for 4 weeks; format: functional, organism-based
# Mus musculus [17] = experiment: Antiobesity activity in C57BL/6J mouse model of diet-induced obesity assessed as reduction in ALT levels at 1 umol/kg, ip qd for 4 weeks; format: functional, organism-based
# Mus musculus [18] = experiment: Antiobesity activity in C57BL/6J mouse model of diet-induced obesity assessed as reduction in AST levels at 1 umol/kg, ip qd for 4 weeks; format: functional, organism-based
# Mus musculus [19] = experiment: Antiobesity activity in C57BL/6J mouse model of diet-induced obesity assessed as reduction in serum total cholesterol levels at 1 umol/kg, ip qd for 4 weeks; format: functional, organism-based
# Mus musculus [20] = experiment: Antiobesity activity in C57BL/6J mouse model of diet-induced obesity assessed as reduction in triglyceride levels at 1 umol/kg, ip qd for 4 weeks; format: functional, organism-based
# Mus musculus [21] = experiment: Antiobesity activity in C57BL/6J mouse model of diet-induced obesity assessed as reduction in LDL/HDL levels at 1 umol/kg, ip qd for 4 weeks; format: functional, organism-based
# Mus musculus [22] = experiment: Antidiabetic activity in STZ-induced diabetic ICR mouse model assessed as reduction in HbA1c level at 0.1 to 10 umol/kg, ip for 5 consecutive days; format: functional, organism-based
# Mus musculus [23] = experiment: Antiobesity activity in C57BL/6J mouse model of diet-induced obesity assessed as reduction in circulating adiponectin level at 1 umol/kg, ip qd for 4 weeks; format: functional, organism-based
substance,measurement,setting,value
H-FIAWLVKGRKKK-NH2,Activity,Mus musculus [1],10.8 mmol/L
same,Activity,Mus musculus [2],Active
same,Activity,INS1 [3],17%
same,Activity,INS1 [4],36%
same,Activity,INS1 [5],29%
same,Activity,INS1 [6],21%
same,Activity,INS1 [7],Active
same,Activity,INS1 [8],Active
same,Activity,INS1 [9],Active
same,Activity,Mus musculus [10],16.5 mM
same,Activity,Mus musculus [11],14.9 mM
same,Activity,Mus musculus [12],15.03 mM
same,Activity,Mus musculus [13],12.7%
same,Activity,Mus musculus [14],Active
same,Activity,Mus musculus [15],Active
same,Activity,Mus musculus [16],inactive
same,Activity,Mus musculus [17],Active
same,Activity,Mus musculus [18],Active
same,Activity,Mus musculus [19],Active
same,Activity,Mus musculus [20],Active
same,Activity,Mus musculus [21],inactive
same,Activity,Mus musculus [22],inactive
same,Activity,Mus musculus [23],inactive
H-FIAWLVKGRKKKKKK-NH2,Activity,Mus musculus [1],11.9 mmol/L
same,Activity,Mus musculus [2],Active

# Reference: ChEMBL document CHEMBL4480451, “Novel nonapeptide GLP (28-36) amide derivatives with improved hypoglycemic and body weight lowering effects” (2019)
